Data reported in patent US12648565B2, “Post-emergence herbicide” (Belvedere Foliar LLC, priority 2017, dated 2026).
Where two headings read alike, the source gives them in different places.

Columns and labels:
[1] = tested on: monocotyledonous grass and liliaceae species (Pasture Blend 2, Allium cepa); assay: Trial 41: greenhouse foliar spray trial, monocots, visual toxicity scoring; format: in vivo, grasses of pasture seed blend; settings: 2.0M; Plants P-2 and 2
Text: (§1) FIG. 5 depicts the average toxicity scores for the four plants tested in Trial 41, which tested an embodiment of an herbicide composition and method of using the same. The plants were numbered 22, 2, 3, and 10, corresponding to mixed monocotyledonous and dicotyledonous Pasture Blend 2 and Allium cepa (Onion “Torpedo Red”), and dicotyledonous Antirrhinum majus (Snapdragon) and Cineraria meritima (Dusty Miller, “Silver Dust” (Refer to Tables 4A and 4B for plant species identification). Both of the samples S-1 and S-2 were solutions of 2.0 Molar of ammonium sulfate having a pH of 5.5. (Refer to Tables 6A and 6B for trial solutions, details and results). Results of Trial 41: For broadleaf (dicotyledonous) species of Sample S-1 at 2.0 Molar concentration, excellent phytotoxic effects from 4.0 to 5.0 (“severe-to-fatal”) resulted from Day 3 through trial conclusion at Day 23. For monocotyledonous grass and liliaceae species of Sample S-2 at 2.0 Molar concentration, an initial moderate effect of 3.0 had decreased to 2.3 (“slight”). […] Dicots included in the Pasture 2 samples of S-1 and S-2 were all dead by Day 7. However, separate toxicity results for the monocots and dicots present in the Pasture Blend 2 mix were not recorded, and are not presented in FIG. 5.
(§2) In Trial 41, the herbicide comprised Ammonium sulfate […]; molarity 2.0; unadjusted pH approx. 5.5. […]

[2] = tested on: broadleaf (dicotyledonous) species (Antirrhinum majus, Cineraria meritima); assay: Trial 41: greenhouse foliar spray trial, dicots, visual toxicity scoring; format: in vivo; settings: solutions “B”, 2.0M; Plant 3 and 10; by test conclusion at Day 23
Text: as §1, §2

weeds growing in soil = format: in vivo
[3] = tested on: Pasture Blend 1, Calendula officinalis (Common marigold), Cineraria meritima (Dusty miller) (plants 21, 7, 10); assay: Trial 13: greenhouse foliar spray trial, visual toxicity scoring; format: in vivo; settings: Day 11
Text: (§3) The majority of greenhouse trials conducted to date have been of one basic design: • 1. Samples of different species of flowering plant and grass are exposed to different formulations of the herbicide in accordance with some embodiments, prepared in a range of concentrations, in combination with potentially suitable adjuvants, and applied as an aquatic spray. Experimental plants are purchased either from a local nursery, grown from ornamental and weed seed packs, or grown from seeds of a custom blend prepared specifically for this project and listed in Table 4B. The experimental variable in a typical test is the molar mass concentration of the nutrient salt being examined. Other factors including pH, nitrogen source, and the amount and composition of surfactant or penetrant are constants within a trial except when one of these factors is itself the variable of interest in the experiment. Experiments are controlled unless irrelevant for a particular test. • 2. […] Plants are sprayed with the experimental formulation, always in late afternoon (greenhouse tests), or in early morning (field tests), are observed over as many as several weeks, and their visible state of decline scored by the same examiner on a 9 points system relying on visual effects of toxicity. […]

[4] = tested on: broadleaf (dicot) samples: Brassica oleracea (Kale), Dichondra repens, Fragraia x ananassa (Strawberry); assay: Trial 46: greenhouse foliar spray trial, broadleaf (dicot) samples, visual toxicity scoring; format: in vivo, Fragaria x ananassa
Text: (§4) FIG. 9 is a graph showing the average toxicity scores for the […] plants tested in Trial 46, which tested an embodiment of an herbicide composition and method of using the same. The plants were numbered P2, 5, 11A, and 13, corresponding to Pasture Blend 2, Brassica oleracea (Kale), Dichondra repens, Fragraia x ananassa Strawberry (Refer to Tables 4A and 4B for plant species identification). Solutions S-1 and S-2 correspond to solutions of Monopotassium phosphate (KH2PO4) at concentrations of 2.0 molarity (Solution 1) and 1.5 molarity (Solution 2). […] The adjuvants in Trial 46 were […] silicone surfactant and methylated seed oil (MSO).
(§5) The majority of greenhouse trials conducted to date have been of one basic design: • 1. Samples of different species of flowering plant and grass are exposed to different formulations of the herbicide in accordance with some embodiments, prepared in a range of concentrations, in combination with potentially suitable adjuvants, and applied as an aquatic spray. […] Plants are sprayed with the experimental formulation, always in late afternoon (greenhouse tests), or in early morning (field tests), are observed over as many as several weeks, and their visible state of decline scored by the same examiner on a 9 points system relying on visual effects of toxicity. […]

[5] = tested on: the three grasses in P-2 (Pasture Blend 2); assay: Trial 46: greenhouse foliar spray trial, grasses, visual toxicity scoring; format: in vivo, Lolium perenne, Dactylis glomerata, Festuca arundinacea; settings: Day 8 through Day 18
Text: as §4, §5

plants = assay: Example 13: micronutrient salt composition applied to plants as in Example 1, toxicity scoring; format: in vivo; settings: after a period of 3-30 days
Experimental: Toxicity scoring is performed as described in Table 7.

[6] = tested on: Pasture Blend 2, Allium cepa (Onion), Cineraria maritima (Dusty miller), Antirrhinum majus (Snapdragon); assay: Trial 44: greenhouse foliar spray trial, visual toxicity scoring; format: in vivo
Text: The majority of greenhouse trials conducted to date have been of one basic design: • 1. Samples of different species of flowering plant and grass are exposed to different formulations of the herbicide in accordance with some embodiments, prepared in a range of concentrations, in combination with potentially suitable adjuvants, and applied as an aquatic spray. Experimental plants are purchased either from a local nursery, grown from ornamental and weed seed packs, or grown from seeds of a custom blend prepared specifically for this project and listed in Table 4B. The experimental variable in a typical test is the molar mass concentration of the nutrient salt being examined. Other factors including pH, nitrogen source, and the amount and composition of surfactant or penetrant are constants within a trial except when one of these factors is itself the variable of interest in the experiment. Experiments are controlled unless irrelevant for a particular test. • 2. Standard techniques to reduce experimental error are employed including use of controls; standard spray application pressures; standardized growing conditions, growing medium, containers, and source irrigation water; and preparation and shipping of samples for laboratory analysis according to required standard laboratory protocols. • 3. Plants are sprayed with the experimental formulation, always in late afternoon (greenhouse tests), or in early morning (field tests), are observed over as many as several weeks, and their visible state of decline scored by the same examiner on a 9 points system relying on visual effects of toxicity. (Table 5.)
Scores of half-value are also used: 0, 0.5, 1.0, 1.5, 2.0, 2.5, etc. • 4. The estimated successful herbicidal effectiveness of a formulation was determined from a combination of averaged and cumulative scores of 4.0 to 5.0 observed approximately 14 days or longer after application: “All leaves and flowers if present desiccated, browned, wilted, and stems or blades lodged; no green tissue visible; no regrowth from roots visible.”
S-1 corresponds to the highest concentration of active nutrient tested, S-3 corresponds to the lowest concentration of nutrient tested and S-2 represents an intermediate level.

[7] = tested on: all broadleaf species in the trial; assay: Trial 64: greenhouse foliar spray trial, broadleaf species; format: in vivo; settings: 0.5 molarity; Days 12 through 34
Text: as §3

[8] = tested on: the grass species in the trial; assay: Trial 64: greenhouse foliar spray trial, grass species; format: in vivo, grasses of pasture seed blend; settings: 0.5 molarity; Days 12 through 34
Text: as §3

Which results are given for `N.N.O=S(=O)(O)O` [Ammonium sulfate]?
responsiveness (in words) [1]: considerably less responsive; toxicity level (in words) [2]: severe-to-fatal; herbicidal effects on the weed plants (weeds growing in soil; aqueous solution with citric acid and a surfactant, sprayed): has herbicidal effects

Which average toxicity score ([3]; 1.0M) does the source give for `O=C([O-])CC(O)(CC(=O)[O-])C(=O)[O-].[K+].[K+].[K+]` [K-citrate, potassium citrate] here?
The average toxicity score was 4.0.

What about the average toxicity score ([3]; […]) of the same molecule?
Its average toxicity score is 4.3.

Which “phytotoxic effect (in words)” value ([4]; 1.0M solution (so in the source), Days 8 through 18) does the source give for `O=P([O-])(O)O.[K+]` [Mono-potassium phosphate] here?
Its value is “severe-to-fatal”.

And the “phytotoxic effect (in words)” value ([4]; 2.0 molar test solution, Day 8 through Day 18, broadleaf samples (dicots))?
Its value is “Severe-to-fatal”.

What about the “phytotoxic effect (in words)” value ([5]; 1.5 molar test solution) of the same molecule?
Its value is “minimal effect”.

And the “phytotoxic effect (in words)” value ([5]; 2.0 molar test solution)?
Its value is “minimal effect”.

`O.O=S(=O)([O-])[O-].[Zn+2]` [Zn sulfate monohydrate] was tested. Which plant death (plants) did it give?
Its plant death is “plant death is observed”.

How did the average toxicity score ([6]; 1.0M, first of three values for “Days 521 through 32”) turn out when `O=S(=O)([O-])[O-].[Zn+2]` [ZnSO4, Zinc Sulfate] was run?
The average toxicity score was 4.3.

What about the average toxicity score ([6]; 1.0M, second of three values for “Days 521 through 32”) of the same molecule?
Its average toxicity score is 4.4.

What about the average toxicity score ([6]; 1.0M, third of three values for “Days 521 through 32”) of the same molecule?
Its average toxicity score is 4.2.

What about the average toxicity score ([6]; 1.0 molar solution, Day 21 through Day 32) of the same molecule?
Its average toxicity score is “approximately 4.5”.

What about the average toxicity score ([6]; 2.0 molar solution, Day 9) of the same molecule?
The average toxicity score was 3.9.

With `O=[N+]([O-])[O-].O=[N+]([O-])[O-].[Ca+2]` [calcium nitrate] as the molecule, how does the “herbicidal effects on the weed plants” value (weeds growing in soil; in vivo) read?
The value was “has herbicidal effects”.

Which results are given for `O.O.O.O.O=BOB1OB(OB=O)OB2OB([O-])OB([O-])OB(O1)O2.[Na+].[Na+]` [disodium octaborate tetrahydrate]?
phytotoxic control (in words) [7]: Excellent phytotoxic control; phytotoxic control (in words) [8]: Partial control

With `O=[N+]([O-])[O-].O=[N+]([O-])[O-].[Mg+2]` [magnesium nitrate] as the molecule, how does the “herbicidal effects on the weed plants” value (weeds growing in soil; in vivo) read?
The value was “has herbicidal effects”.
